Source: US20240366639A1, “HETEROCYCLIC GLP-1 AGONISTS” (GASHERBRUM BIO, INC., priority 2021, published 2024)
Like-named read-outs stand apart in the source and are kept apart here.

Molecular target: T1, GLP-1 Receptor (GLP1R) (Homo sapiens, UniProt P43220)
T1 construct: host or cells: HEK293/GLP1R/CRE-LUC
Assay: GLP-1R agonist cAMP stimulation assay (Method 3)
Format: cell-based
Conditions: HEK293/GLP1R/CRE-LUC cells (HDB), Method 3, 30 min incubation
Outline: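 HEK293 CRE-Luc cells stably expressing GLP-1R (1000 cells/well) were exposed to ½-log serially diluted compound in DPBS with 0.5 mM IBMX and 0.1% BSA for 30 min at 37 °C. cAMP was quantified by HTRF (cAMP-d2/anti-cAMP cryptate), 1 h at room temperature, read at 665/615 nm.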

[1] = read-out: GLP1R cAMP Stimulation DR: EC50 (nM) [Species: Human, Assay Cell Line: HDB]
[2] = read-out: GLP1R cAMP Stimulation DR: pEC50 (M) [Species: Human, Assay Cell Line: HDB] (converted)

T1 sequence (P43220 24-463): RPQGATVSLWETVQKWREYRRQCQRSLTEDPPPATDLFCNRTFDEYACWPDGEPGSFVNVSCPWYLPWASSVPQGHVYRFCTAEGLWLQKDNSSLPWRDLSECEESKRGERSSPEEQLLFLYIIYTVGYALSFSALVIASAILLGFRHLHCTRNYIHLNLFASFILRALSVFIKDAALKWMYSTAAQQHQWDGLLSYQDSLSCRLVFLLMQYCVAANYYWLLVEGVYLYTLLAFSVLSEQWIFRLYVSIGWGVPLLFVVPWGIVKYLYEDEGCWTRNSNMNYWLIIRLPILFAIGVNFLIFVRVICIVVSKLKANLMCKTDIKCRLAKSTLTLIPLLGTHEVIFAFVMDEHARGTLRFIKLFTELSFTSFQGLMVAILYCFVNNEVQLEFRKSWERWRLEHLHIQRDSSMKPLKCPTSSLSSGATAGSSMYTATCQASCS

CCP(=O)(CC)c1c(F)cc(-n2ccn(-c3c4c(nn3-c3cc(C)c(F)c(C)c3)CCN(C(=O)c3cc5cc(C6CCOCC6)ccc5n3[C@@]3(c5noc(=O)[nH]5)C[C@@H]3C)[C@H]4C)c2=O)cc1NC [Compound 143a, 3-((1S,2S)-1-(2-((S)-3-(3-(4-(diethylphosphoryl)-3-fluoro-5-(methylamino)phenyl)-2-oxo-2,3-dihydro-1H-imidazol-1-yl)-2-(4-fluoro-3,5-dimethylphenyl)-4-methyl-4,5,6,7-tetrahydro-2H-pyrazolo[4,3-c]pyridine-5-carbonyl)-5-(tetrahydro-2H-pyran-4-yl)-1H-indol-1-yl)-2-methylcyclopropyl)-1,2,4-oxadiazol-5(4H)-one]
EC50 [1]: 0.1 to 0.2 nM | EC50 [2]: 0.1 to 1 nM

CCP(=O)(CC)c1cc(F)c(-n2ccn(-c3c4c(nn3-c3cc(C)c(F)c(C)c3)CCN(C(=O)c3cc5cc(C6CCOCC6)ccc5n3[C@@]3(c5noc(=O)[nH]5)C[C@@H]3C)[C@H]4C)c2=O)cc1NC [Compound 144a, 3-((1S,2S)-1-(2-((S)-3-(3-(4-(diethylphosphoryl)-2-fluoro-5-(methylamino)phenyl)-2-oxo-2,3-dihydro-1H-imidazol-1-yl)-2-(4-fluoro-3,5-dimethylphenyl)-4-methyl-4,5,6,7-tetrahydro-2H-pyrazolo[4,3-c]pyridine-5-carbonyl)-5-(tetrahydro-2H-pyran-4-yl)-1H-indol-1-yl)-2-methylcyclopropyl)-1,2,4-oxadiazol-5(4H)-one]
EC50 [1]: < 0.1 nM | EC50 [2]: ≤ 0.1 nM

CCP(=O)(CC)c1ccc(-n2ccn(-c3c4c(nn3-c3cc(C)c(F)c(C)c3)CCN(C(=O)c3cc5cc(C6CCOCC6)ccc5n3[C@@]3(c5noc(=O)[nH]5)C[C@@H]3C)[C@H]4C)c2=O)c(F)c1NC [Compound 145a, 3-((1S,2S)-1-(2-((S)-3-(3-(4-(diethylphosphoryl)-2-fluoro-3-(methylamino)phenyl)-2-oxo-2,3-dihydro-1H-imidazol-1-yl)-2-(4-fluoro-3,5-dimethylphenyl)-4-methyl-4,5,6,7-tetrahydro-2H-pyrazolo[4,3-c]pyridine-5-carbonyl)-5-(tetrahydro-2H-pyran-4-yl)-1H-indol-1-yl)-2-methylcyclopropyl)-1,2,4-oxadiazol-5(4H)-one]
EC50 [1]: < 0.1 nM | EC50 [2]: ≤ 0.1 nM

CCP(=O)(CC)c1ccc(-n2ccn(-c3c4c(nn3-c3cc(C)c(F)c(C)c3)CCN(C(=O)c3cc5cc([C@@H]6CCOC(C)(C)C6)ccc5n3[C@@]3(c5noc(=O)[nH]5)C[C@@H]3C)[C@H]4C)c2=O)cc1NC [Compound 146a, 3-((1S,2S)-1-(2-((S)-3-(3-(4-(diethylphosphoryl)-3-(methylamino)phenyl)-2-oxo-2,3-dihydro-1H-imidazol-1-yl)-2-(4-fluoro-3,5-dimethylphenyl)-4-methyl-4,5,6,7-tetrahydro-2H-pyrazolo[4,3-c]pyridine-5-carbonyl)-5-((R)-2,2-dimethyltetrahydro-2H-pyran-4-yl)-1H-indol-1-yl)-2-methylcyclopropyl)-1,2,4-oxadiazol-5(4H)-one]
EC50 [1]: < 0.1 nM | EC50 [2]: ≤ 0.1 nM

CCP(=O)(CC)c1ccc(-n2ccn(-c3c4c(nn3-c3cc(C)c(F)c(C)c3)CCN(C(=O)c3cc5cc([C@H]6CCOC(C)(C)C6)ccc5n3[C@@]3(c5noc(=O)[nH]5)C[C@@H]3C)[C@H]4C)c2=O)cc1NC [Compound 146b, 3-((1S,2S)-1-(2-((S)-3-(3-(4-(diethylphosphoryl)-3-(methylamino)phenyl)-2-oxo-2,3-dihydro-1H-imidazol-1-yl)-2-(4-fluoro-3,5-dimethylphenyl)-4-methyl-4,5,6,7-tetrahydro-2H-pyrazolo[4,3-c]pyridine-5-carbonyl)-5-((S)-2,2-dimethyltetrahydro-2H-pyran-4-yl)-1H-indol-1-yl)-2-methylcyclopropyl)-1,2,4-oxadiazol-5(4H)-one]
EC50 [1]: < 0.1 nM | EC50 [2]: ≤ 0.1 nM

Cc1cc(-n2nc3c(c2-n2ccn(Cc4cccc(P(C)(C)=O)c4)c2=O)[C@H](C)N(C(=O)c2cc4cc(C5CCOCC5)ccc4n2[C@@]2(c4noc(=O)[nH]4)C[C@@H]2C)CC3)cc(C)c1F [Compound 147a, 3-((1S,2S)-1-(2-((S)-3-(3-(3-(dimethylphosphoryl)benzyl)-2-oxo-2,3-dihydro-1H-imidazol-1-yl)-2-(4-fluoro-3,5-dimethylphenyl)-4-methyl-4,5,6,7-tetrahydro-2H-pyrazolo[4,3-c]pyridine-5-carbonyl)-5-(tetrahydro-2H-pyran-4-yl)-1H-indol-1-yl)-2-methylcyclopropyl)-1,2,4-oxadiazol-5(4H)-one]
EC50 [1]: 0.5 to 5 nM | EC50 [2]: 1 to 10 nM

CNc1cc(-n2ccn(-c3c4c(nn3-c3cc(C)c(F)c(C)c3)CCN(C(=O)c3cc5cc(C6CCOCC6)ccc5n3C3(c5noc(=O)[nH]5)CC3)[C@H]4C)c2=O)ccc1P(=O)(C1CC1)C1CC1 [Compound 148a, (S)-3-(1-(2-(3-(3-(4-(dicyclopropylphosphoryl)-3-(methylamino)phenyl)-2-oxo-2,3-dihydro-1H-imidazol-1-yl)-2-(4-fluoro-3,5-dimethylphenyl)-4-methyl-4,5,6,7-tetrahydro-2H-pyrazolo[4,3-c]pyridine-5-carbonyl)-5-(tetrahydro-2H-pyran-4-yl)-1H-indol-1-yl)cyclopropyl)-1,2,4-oxadiazol-5(4H)-one]
EC50 [1]: < 0.1 nM | EC50 [2]: ≤ 0.1 nM

CCP(=O)(CC)c1ccc(-n2ccn(-c3c4c(nn3-c3cc(C)c(F)c(C)c3)CCN(C(=O)c3cc5cc(N6CCOC(C)(C)C6)ccc5n3[C@@]3(c5noc(=O)[nH]5)C[C@@H]3C)[C@H]4C)c2=O)cc1NC [Compound 150a, 3-((1S,2S)-1-(2-((S)-3-(3-(4-(diethylphosphoryl)-3-(methylamino)phenyl)-2-oxo-2,3-dihydro-1H-imidazol-1-yl)-2-(4-fluoro-3,5-dimethylphenyl)-4-methyl-4,5,6,7-tetrahydro-2H-pyrazolo[4,3-c]pyridine-5-carbonyl)-5-(2,2-dimethylmorpholino)-1H-indol-1-yl)-2-methylcyclopropyl)-1,2,4-oxadiazol-5(4H)-one]
EC50 [1]: 0.1 to 0.2 nM | EC50 [2]: 0.1 to 1 nM
